Results as given in patent US6150524A, “Morphine derivatives with analgesic activity” (priority 1995, dated 2000).
Counter-ions that a name gives are not always drawn. Like-named read-outs stand apart in the source and are kept apart here.

Tested on: mice
Assay: Haffner test ("Tail clip test") in mice
Format: in vivo, mouse (male CD mice)
Settings: Mus musculus, read-out: ED50 (Haffner test in mice)
From the text: METHOD: Haffner Test ("Tail clip test") in Mice
The Haffner test is a standard procedure for determining the pain-inhibiting effect of powerful analgesics, mostly of the opioid type, in mice. The method largely corresponds to the one described by Bianchi C. and Franceschini J. (Brit. J. Pharmacol. 9:280, 1954; Experimental observations on Haffner's method for testing analgesic drugs).
Male CD mice (from Charles River, Sulzfeld, FRG) with an average weight of 30±5 grams were used. The animals were kept under standard conditions (temperature: 22±2° C., relative humidity: 55±10%, air exchange: 15-20 times per hour and 12/12 hours light/darkness cycle). The animals had unlimited access to food and water until the test began. During the test the animals were kept singly in Makrolon Type III cages with no bedding. A 3.5 cm arterial clamp was placed about 2 cm from the base of the tail and the pain reaction time was measured in seconds. Any active attempt by the animal to remove the clamp was assessed as a pain reaction. To prevent tissue damage, the test was stopped after at most 30 seconds in every case (cut off latency). In a preliminary test, mice with a pain reaction time of less than 5 seconds (base line latency) were selected for the actual test, which was carried out at specific intervals after the administration of the drug (test latency).
Corresponding quantities of test substances were dissolved in physiological saline solution for intravenous administration or in twice distilled water for oral administration. The total volume administered was 10 ml/kg of body weight in each case. Controls were given the same solvent but with no test substance. 8-10 mice were tested in each group.
The results were plotted as individual values (seconds), mean value±scattering (seconds) per group and as the percent of the maximum possible effect (% MPE=percent of Maximum Possible Effect). [formula] Significant differences between the control and test groups were calculated by means of an unpaired, two-sided Students T-test (*2P<0.05;**2P<0.01; 2P<0.001).
The ED50 value describes the dosage at which 50% of the maximum possible effect (MPE) is achieved. The ED50 value is calculated by linear regression between the dose and the % MPE.

SMILES	ED50 (iv, 10 min, i.v., 10 min.) [µmol/kg]	ED50 (iv, 0.5 h, i.v., 30 min.) [µmol/kg]	ED50 (iv, 1 h, i.v., 60 min.) [µmol/kg]	ED50 (iv, 2 h, i.v., 120 min.) [µmol/kg]	ED50 (po, 0.5 h, p.o., 30 min.) [µmol/kg]	ED50 (po, 1 h, p.o., 60 min.) [µmol/kg]	ED50 (po, 2 h, p.o., 120 min.) [µmol/kg]	ED50 (po, 3 h, p.o., 180 min.) [µmol/kg]	ED50 (iv, 10 min) [µmol/kg]	ED50 (iv, 0.5 h) [µmol/kg]	ED50 (iv, 1 h) [µmol/kg]	ED50 (iv, 2 h) [µmol/kg]	ED50 (po, 0.5 h) [µmol/kg]	ED50 (po, 1 h) [µmol/kg]	ED50 (po, 2 h) [µmol/kg]	ED50 (po, 3 h) [µmol/kg]
COC(=O)CCCCC(=O)O[C@H]1CC[C@H]2[C@H]3Cc4ccc(O)c5c4[C@@]2(CCN3C)[C@H]1O5 [Example 4, 4,5α-Epoxy-6α-((5-methoxycarbonyl-valeryl)-oxy)-17-methyl-morphinan-3-ol acetate]					0.039	0.044	0.073	0.189								
CN1CC[C@]23c4c5ccc(O)c4O[C@H]2[C@@H](OCCCCOC(=O)c2ccccc2)C=C[C@H]3[C@H]1C5 [Example 4]	0.0004	0.0031	0.0119	0.0217	0.035	0.046	0.058	0.069								
COC(=O)c1ccc(CO[C@H]2C=C[C@H]3[C@H]4Cc5ccc(O)c6c5[C@@]3(CCN4C)[C@H]2O6)cc1 [Example 5]	0.0008	0.0008	0.0032	0.0095	0.06	0.068	0.072	0.09								
CN1CC[C@]23c4c5ccc(O)c4O[C@H]2[C@@H](OCCCCOC(=O)C(C)(C)C)C=C[C@H]3[C@H]1C5 [Example 6]	0.0005	0.0026	0.0114	0.029	0.058	0.108	0.12	0.132								
CN1CC[C@]23c4c5ccc(O)c4O[C@H]2[C@@H](OC(=O)C(C)(O)C(F)(F)F)C=C[C@H]3[C@H]1C5 (some centres unmarked) [Example 11]	0.0056	0.007	0.013	0.019	0.148	0.172	0.256	0.269								
COc1ccc(CCCC(=O)O[C@H]2C=C[C@H]3[C@H]4Cc5ccc(O)c6c5[C@@]3(CCN4C)[C@H]2O6)cc1 [Example 19]	0.002	0.0025	0.0033	0.0056	0.084	0.107	0.128	0.178								
COC(=O)CCCCC(=O)O[C@H]1C=C[C@H]2[C@H]3Cc4ccc(O)c5c4[C@@]2(CCN3C)[C@H]1O5 [Example 20]	0.0037	0.0051	0.011	0.015	0.118	0.12	0.17	0.234								
COC(=O)CCCCCCC(=O)O[C@H]1C=C[C@H]2[C@H]3Cc4ccc(O)c5c4[C@@]2(CCN3C)[C@H]1O5 [Example 22, 4,5α-Epoxy-6α-((6-methoxycarbonyl-hexylcarbonyl)-oxy)-17-methyl-morphinan-7-en-3-ol]	0.0025	0.0033	0.005	0.022	0.109	0.208	0.298	0.315								
CCOC(=O)CCCCCO[C@H]1C=C[C@H]2[C@H]3Cc4ccc(O)c5c4[C@@]2(CCN3C)[C@H]1O5 [Example 22]	0.003	0.0037	0.01	0.012	0.055	0.09	0.096	0.086								
CCOC(=O)CCCCO[C@H]1C=C[C@H]2[C@H]3Cc4ccc(O)c5c4[C@@]2(CCN3C)[C@H]1O5 [Example 25]	0.0011	0.0057	0.0112	0.0129	0.0201	0.028	0.031	0.037								
CN1CC[C@]23c4c5ccc(O)c4O[C@H]2[C@@H](OCCCCC#N)C=C[C@H]3[C@H]1C5 [Example 27]	0.0059	0.0073	0.0154	0.038	0.059	0.073	0.108	0.178								
CCCC(COC1C=CC2C3Cc4ccc(O)c5c4C2(CCN3C)C1O5)OC(C)=O (centres unmarked) [Example 32]	0.001	0.003	0.0099	0.024	0.068	0.12	0.154	0.232								
CCCC(O)CO[C@H]1C=C[C@H]2[C@H]3Cc4ccc(O)c5c4[C@@]2(CCN3C)[C@H]1O5 (some centres unmarked) [Example 33]	0.0019	0.0046	0.0083	0.021	0.029	0.037	0.051	0.069								
CC(=O)OCCCO[C@H]1C=C[C@H]2[C@H]3Cc4ccc(O)c5c4[C@@]2(CCN3C)[C@H]1O5 [Example 38]	0.0003	0.0019	0.0036	0.079	0.023	0.027	0.035	0.043								
CN1CC[C@]23c4c5ccc(O)c4O[C@H]2[C@@H](OCCCO)C=C[C@H]3[C@H]1C5 [Example 39]					0.027	0.035	0.149	0.283								
CN1CC[C@]23c4c5ccc(O)c4O[C@H]2[C@@H](O)C=C[C@H]3[C@H]1C5 [Morphine.HCl, reference compound]									0.017	0.019	0.021	0.037	0.279	0.296	0.539	0.718
